Values quoted from earlier work as cited in patent US7842677B2, “Synthetic ganglioside derivatives and compositions thereof” (Seneb Biosciences, Inc., priority 2001, dated 2010).

Test system: murine neuroblastoma cells

## ganglioside GM3
  growth of neuroblastoma cells (in words): inhibit the growth
